{"source": "patent US20220018852A1", "about": "“METHODS AND KITS FOR DETECTING LIVER DYSFUNCTION IN A SUBJECT” (priority 2018, published 2022)", "key": {"[1]": {"target": "T1, albumin of rats (Rattus norvegicus, UniProt P02770)", "T1 construct": "The SEB test was performed in the serum of all groups of rats; from tissue; host or cells: serum of male Wistar rats (ethanol-treated and control)", "T1 sequence (P02770 25-608)": "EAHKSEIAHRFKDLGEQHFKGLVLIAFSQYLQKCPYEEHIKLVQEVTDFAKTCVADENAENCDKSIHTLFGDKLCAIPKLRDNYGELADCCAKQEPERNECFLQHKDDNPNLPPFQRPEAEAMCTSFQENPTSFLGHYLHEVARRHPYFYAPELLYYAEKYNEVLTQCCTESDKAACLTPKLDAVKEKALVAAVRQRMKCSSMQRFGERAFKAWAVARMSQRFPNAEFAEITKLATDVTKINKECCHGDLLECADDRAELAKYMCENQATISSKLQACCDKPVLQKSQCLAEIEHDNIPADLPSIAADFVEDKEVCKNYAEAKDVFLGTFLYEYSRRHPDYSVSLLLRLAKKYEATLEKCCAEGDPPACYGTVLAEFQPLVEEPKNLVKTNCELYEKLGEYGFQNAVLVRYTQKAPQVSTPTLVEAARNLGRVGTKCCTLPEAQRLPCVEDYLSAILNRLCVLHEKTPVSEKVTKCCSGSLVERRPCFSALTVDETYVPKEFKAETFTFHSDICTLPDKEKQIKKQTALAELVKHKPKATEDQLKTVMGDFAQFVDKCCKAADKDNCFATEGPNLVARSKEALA", "assay": "SEB test applied to serum of ethanol-treated rats", "assay_type": "binding", "settings": "L-thyroxine at 1/5, Au at 1/50"}, "[2]": {"target": "T2, HSA (Homo sapiens, UniProt P02768)", "T2 sequence (P02768 25-609)": "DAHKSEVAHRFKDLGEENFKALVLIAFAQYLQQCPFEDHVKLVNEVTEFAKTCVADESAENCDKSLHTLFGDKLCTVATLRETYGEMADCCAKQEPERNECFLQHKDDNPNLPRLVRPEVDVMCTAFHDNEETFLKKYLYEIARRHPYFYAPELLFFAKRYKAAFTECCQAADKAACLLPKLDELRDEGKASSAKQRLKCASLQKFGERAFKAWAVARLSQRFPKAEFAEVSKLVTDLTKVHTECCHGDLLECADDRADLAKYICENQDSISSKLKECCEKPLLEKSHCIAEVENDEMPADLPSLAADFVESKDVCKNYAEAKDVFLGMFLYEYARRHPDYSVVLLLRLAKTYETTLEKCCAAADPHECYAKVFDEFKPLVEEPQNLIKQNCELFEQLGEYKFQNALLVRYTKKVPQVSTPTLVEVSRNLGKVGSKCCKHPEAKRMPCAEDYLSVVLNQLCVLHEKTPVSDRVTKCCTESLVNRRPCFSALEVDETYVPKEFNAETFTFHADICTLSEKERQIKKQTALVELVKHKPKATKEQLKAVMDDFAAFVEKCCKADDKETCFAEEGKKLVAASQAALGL", "assay": "SEB test, development cohort: 45 cirrhotic vs 45 control patients", "assay_type": "binding", "settings": "45 cirrhotic vs 45 controls"}, "[3]": {"target": "T2, HSA", "assay": "SEB test, discovery cohort: cirrhotic patients vs patients with no liver dysfunction", "assay_type": "binding", "settings": "for sensitivity of discrimination of cirrhotic from control patients / specificity of discrimination of cirrhotic from control patients: discovery cohort, 18 cirrhotic vs 18 controls, HSA/ligand Au 1/100, Cu 1/10, dansylsarcosine 1/5, L-thyroxine 1/10"}, "[4]": {"target": "T2, HSA", "assay": "Enhanced binding capacity of serum/HSA: serum of patients with no liver dysfunction spiked with ligand, ultrafiltration, ICP-MS of unbound ligand"}, "[5]": {"target": "T2, HSA", "settings": "literature [21]; cited from earlier work"}, "[6]": {"target": "T2, HSA", "assay": "Same binding test with Vialebex commercial albumin solution at 200 mg/mL", "settings": "Vialebex commercial solution of pure HSA"}}, "note": "Several values for one entry are separate records, joined by “and”; a condition that tells them apart may be missing. Identical values can stand only once. Counter-ions that a name gives are not always drawn.", "data": [{"smiles": "O.O.O.[Cl][Au]([Cl])[Cl]", "note": "[Au, gold(III) chloride trihydrate]", "values": [{"measurement": "SEB test result in rat serum", "setting": "[1]; as soon as D1 (ethanol for 1 day)", "value": "positive"}]}, {"smiles": "CN(C)c1cccc2c(S(=O)(=O)N(C)CC(=O)O)cccc12", "note": "[dansylsarcosine, Dansylsarcosine Piperidinium Salt]", "values": [{"measurement": "specificity (Sp)", "setting": "[2]", "value": 98, "unit": "%"}, {"measurement": "Ratio DS/HSA, reference value", "setting": "[3]; control patients, mean", "value": 0.23, "unit": "μM/μg/L"}, {"measurement": "sensitivity of discrimination of cirrhotic from control patients", "setting": "[3]", "value": 100, "unit": "%"}, {"measurement": "specificity of discrimination of cirrhotic from control patients", "setting": "[3]", "value": 100, "unit": "%"}, {"measurement": "Ratio DS/HSA (ligand in the filtrate / albumin)", "setting": "[3]; individual cirrhotic patients 1-18, one value per patient, HSA/dansylsarcosine 1/5, listed as DS", "value": "4.77 μM/μg/L and 2.26 μM/μg/L and 5.71 μM/μg/L and 7.58 μM/μg/L and 0.78 μM/μg/L and 16.38 μM/μg/L"}, {"measurement": "molecules bound per molecule of albumin", "setting": "[4]; serum samples, 100% retention, L-thyroxine not testable above 1/10 ratio (dissolution problems)", "value": "≤ 2.5 molecules per molecule of albu"}]}, {"smiles": "[Cd]", "note": "[Cd]", "values": [{"measurement": "specificity (Sp)", "setting": "[2]", "value": 98, "unit": "%"}, {"measurement": "SEB test result in rat serum", "setting": "[1]; group D14 (ethanol for 14 days), Cu, Cd", "value": "positive"}, {"measurement": "atoms bound per molecule of albumin", "setting": "[4]; serum samples, 100% retention", "value": "≤ 50 atoms per molecule of albumin"}]}, {"smiles": "[Cl][Cu][Cl]", "note": "[Cu, copper(II) chloride]", "values": [{"measurement": "atoms of Cu HSA is able to bind (reported)", "setting": "[5]", "value": "less than 2 atoms"}, {"measurement": "ligand/HSA retention ratio", "setting": "[6]", "value": 40}, {"measurement": "specificity (Sp)", "setting": "[2]", "value": 98, "unit": "%"}, {"measurement": "Ratio Cu/HSA, reference value", "setting": "[3]; control patients, mean", "value": 4.3, "unit": "μM/μg/L"}, {"measurement": "sensitivity of discrimination of cirrhotic from control patients", "setting": "[3]", "value": 100, "unit": "%"}, {"measurement": "specificity of discrimination of cirrhotic from control patients", "setting": "[3]", "value": 72, "unit": "%"}, {"measurement": "Ratio Cu/HSA (ligand in the filtrate / albumin)", "setting": "[3]; individual cirrhotic patients 1-18, one value per patient, HSA/Cu 1/10", "value": "7.5 μM/μg/L and 4.97 μM/μg/L and 9.33 μM/μg/L and 15.85 μM/μg/L and 5.5 μM/μg/L and 10.45 μM/μg/L and 9.07 μM/μg/L and 6.86 μM/μg/L and 9.64 μM/μg/L and 7.54 μM/μg/L and 6.74 μM/μg/L and 4.76 μM/μg/L and 5.59 μM/μg/L and 8.25 μM/μg/L and 10.68 μM/μg/L and 11.02 μM/μg/L and 5.26 μM/μg/L and 5.56 μM/μg/L"}, {"measurement": "Ratio Cu/HSA (ligand in the filtrate / albumin)", "setting": "[3]; patient 19, NASH without cirrhosis", "value": 5.1, "unit": "μM/μg/L"}, {"measurement": "retention when more Cu was added", "setting": "[4]; above 12 Cu atoms per albumin molecule", "value": "≤ 40", "unit": "%"}, {"measurement": "Cu atoms per albumin molecule retained on the ultracentrifugation filter", "setting": "[4]; serum of patients with no liver dysfunction, average retention of 95%", "value": "up to 12 atoms per albumin molecule"}, {"measurement": "average retention", "setting": "[4]; up to 12 Cu atoms per albumin molecule", "value": 95, "unit": "%"}]}]}
